This is an account of results in EP3323812B1, “ARYLALKYL-AND ARYLOXYALKYL-SUBSTITUTED EPITHELIAL SODIUM CHANNEL BLOCKING COMPOUNDS” (Parion Sciences, Inc., priority 2012, dated 2014).

Test [1] deals with CBE cells. As to the kind of experiment: Airway hydration: apical surface liquid retention on primary CBE cells at air-liquid interface. Format: cell-based, canine. The following applies: 10 µM, after 8 hours, 50 µl applied to apical surface of CBE cells. On the procedure: Primary CBE cells are plated onto collagen-coated, porous membranes maintained at an air-liquid interface to assess maintenance of surface liquid volume over time. […] To reduce artifact due to an apical carbohydrate osmotic gradient upon water loss, glucose was not included in the apical buffer.

Test [2] addresses Muc5B (Homo sapiens, UniProt Q9HC84). The following applies: in vitro; also printed as 3.26%; cited from earlier work.

The structures appear in SMILES notation.

As for `N=C(N)NC(=O)c1nc(Cl)c(N)nc1N` [Amiloride, amiloride], the “surface liquid retained (% initial volume)” value in test [1] is 25±19.2%.
`CC(=O)N[C@@H](CS)C(=O)O` [NAC, N-acetyl cysteine]: in test [2], the “concentration required to fully reduce Muc5B” value was 200 mM.
